In patent US9018188B2, “MicroRNA inhibitors” (Ottawa Hospital Research Institute, priority 2011, dated 2015):

Legend:
Type in all cases: in vivo, mouse
[1] = Indirect calorimetry, physical activity and food intake
Excerpt: To assess whether miR-133 ASO treatment leads to increased whole-body energy expenditure, Applicant carried out indirect calorimetry studies at 2-3 months after ASO treatment on control- and miR-133 ASO treated mice (C57BL/6, male, individually caged, n=5 per treatment group per diet group; FIGS. 6C & 7B). […] Intriguingly, this amount of energy expenditure is coincident with the increase of mitochondrial respirometry-measured energy expenditure in miR-133 ASO treated TA muscles after adjustment with TA muscle mass (FIG. 7A; 0.3 cal·hour^−1·le^−1×75 mg=0.0225 kcal·hour^−1).
(§1) This discrepancy may be related to the abnormally low respiratory exchange ratio (˜0.76) in the control mice fed with HFD (FIG. 7D), which indicates an increased proportion of lipid oxidation in the control mice. […] In addition, miR-133 ASO treatment also led to much improved glucose tolerance in both diet groups (FIGS. 6E & 7F).
Whole-body O2 consumption and CO2 production was measured using an open circuit four-chamber indirect calorimetry system with automatic temperature and light controls (Columbus Instruments). Physical activities during indirect calorimetry was measured using infrared laser beam sets. Mice had access ad libitum to food and water in respiration chambers. Data were recorded for a 24 hour period with light between 06:00-18:00.

hindlimbs = test: Thermographic imaging of hindlimb surface temperature
Description: Mouse thermographic imaging was performed with a FUR T640 infrared camera with highest sensitivity set to ˜35° C. Control- or miR-133 ASO treated C57BL/6 male mice fed with either a regular diet or a high fat diet were shaved at both of the hindlimbs one day before the imaging. Subject mice were quickly anesthetized under ˜1% isoflurane and thermographic images were taken immediately after the mice were anesthetized (within 2 minutes). Data analysis was performed using FUR QuickReport software with measuring crosses set on the TA muscle areas on lower hindlimbs and the neck areas.

IPGTT glucose tolerance = details: both diet groups
Excerpt: (B) Retarded body weight increase over a 16-week body weight monitoring time course in mice received miR-133 ASO treatment during TA muscle regeneration (n=6 per treatment group per diet group). […] Values of total energy expenditure were plotted without normalization to lean body mass. (D) Physical activities measured within light and dark cycles during indirect calorimetry (C) reveal increased physical activities within the dark cycle for miR-133 ASO treated mice (fed the RD). Physical activities are presented as arithmetic means of beam breaking events at X-, Y- and Z-dimensions. (E) IPGTT tests for C57BL/6 mice received either control- or miR-133 ASO treatment (fed the RD; n=6 per group). Error bars: S.E.M., asterisk: significant pair-wise comparison by t-test, *: p≦0.05, **: p≦0.01, ***: p≦0.001, n.s.: not significant.
as §1

Ucp3 = test: Immunoblot of Ucp3 in TA muscle after ASO injection; details: TA muscles
Excerpt: To investigate miR-133 function in brown adipose determination of satellite cells in vivo, Applicant synthesized miR-133 antagomiR (miR-133 antisense oligonucleotide (ASO)) with an antisense sequence to both miR-133a and miR-133b, as well as a control “antagomiR” (control ASO) with the same chemical modifications and not antisense to any mouse gene or EST sequence (see Experimental Procedures). Applicant performed lineage tracing to distinguish effects of miR-133 ASO on satellite cells versus other cell types. Six week old Pax7-CreER; R26R-tdTomato mice were treated with tamoxifin as before (5 consecutive daily injections), then aged to 10 weeks of age prior to initiating the experiment. Control ASO versus miR-133 ASO were injected into tibialis anterior (TA) muscles 3 days following saline injection (quiescent state) or cardiotoxin injection (to induce activation). After one month, RT-qPCR was performed using RNA isolated from several tissues to evaluate the efficacy and scope of miR-133 ASO administration.
To induce brown adipocytes in vivo, 10 mg/mL Cardiotoxin solution (50 μl) was intramuscularly injected into TA muscles of 10-week old Pax7-CreER/R26R-tdTomato mice (FIG. 4) or C57BL/6 mice (FIG. 5 and FIG. 6). Alternatively, frozen injury was performed by applying liquid nitrogen cooled tweezers tips directly onto the anterior sides of TA muscles. […]

With “*mA*mUmAmGmCmUmGmGmUmUmGmAmAmGmGmGmGmAmC*mC*mA*mA*mAChl [miR-133 ASO]” the “energy expenditure or physical activity compared to control mice” value ([1]; HFD, dark cycle) was “No significant increase”, the physical activities ([1]; HFD, light cycle) was “without difference” and the total energy expenditure ([1]; HFD, light cycle) was “significantly increased”. The energy expenditure ([1]; RD, dark cycle) was “conspicuously high”, the physical activities ([1]; RD, dark cycle) was “increased” and the physical activities ([1]; RD, light cycle) was “without change”. For the same substance, the total energy expenditure ([1]; RD, light cycle, 2-3 months after treatment) was “significant increase”, the “24-hour food intake versus control mice” value ([1]; both diet groups) was “comparable” and the “surface temperature of treated hindlimbs higher than control hindlimbs” value (hindlimbs; mice fed with HFD) was 0.9 °C. For the same substance, the “surface temperature of treated hindlimbs higher than control hindlimbs” value (hindlimbs; mice fed with RD) was 0.7 °C, the glucose tolerance (IPGTT glucose tolerance) was “much improved” and the “Ucp3 protein by immunoblotting” value (Ucp3) was “largely unaffected”.
